In patent US6436630B1, “Method for testing the toxicity of chemical substances using gastropods” (priority 1998, dated 2002):
Read-outs that look alike come from different tables or passages of the source.

Columns and labels:
Type in all cases: in vivo
[1] = test system: foot mucosa of slugs of species Arion
[2] = test system: foot mucosa of slugs of species Limax; details: for % MP, mucus production as % of the body weight at the start of the day before the treatment: 1% w/v (HPβCD 5% w/v) in PBS, 15 min; for ALP released into PBS / LDH released into PBS / Protein released into PBS: 1% w/v (HPβCD 5% w/v), total mean of 7 samples/day per slug
Description: Slugs of the species Limax are terrestial slugs have lungs and also a small internal shell. As test substances hydroxypropyl-β-cyclodextrin (HPβCD), sodium tauro-24,25-dihdrofiisidate (STDHF) and sodium deoxycholate were selected. Benzalkonium chloride (1% w/v), HPβCD (5% w/v), STDHF (1% w/v) and SDC (1% w/v) were prepared in phosphate buffered saline (PBS, pH 7.4).
The enzymes lactate dehydrogenase (LDH) and alkaline phosphatase (ALP) and total protein released into the PBS were determined. The change in body weight and mucus production caused by the treatment were examined.

[3] = test system: foot mucosa of slugs (species Arion); assay: Slug mucosal toxicity test, Example 1 (15 min daily treatment, five days); details: for % WL, reduction in weight (weight loss) caused by the 15 minute treatment as % of initial body weight of the day / % MP, mucus production as % of the body weight at the start of the day before the treatment: 1% w/v in PBS; for % MP, mucus production as % of the body weight at the start of the day before the treatment / ALP released into PBS / LDH released into PBS / Protein released into PBS: 15 min; for ALP released into PBS / LDH released into PBS / Protein released into PBS: total mean of 7 samples/day per slug
Excerpt: Initially, the slugs are kept on a culture under controlled conditions of temperature and humidity until they have reached a stable body weight. The purpose of achieving a stable body weight is to improve the reproducibility of the results, particularly as the release of substances from the slugs may conveniently be measured in terms of the body weight thereof. The slugs are then isolated from the culture and placed in a vented plastic box lined with moist paper towel and placed at 95% relative humidity at 20° C. seven days before the start of an experiment. The slugs were not bred in any particular way, i.e. they were wild slugs. It is anticipated that even more accurate and reproducible results can be obtained by selective breeding of the slugs, although as shown by the test results this is not a necessary requirement of the present invention to obtain accurate and useful data.
The test procedure is simple and rapid. The chemical substance to be tested is applied directly to the mucosal membrane of a slug, e.g. to the foot, by placing the slug individually in a petri dish containing the test substance. Slugs treated with phosphate buffered saline are used as a negative control. As a positive control slugs treated with a known toxic substance, benzalkonium chloride, were used.
Because the mucosal epithelium of interest is located at the outside of the slug the effect of substances can be easily observed. […] This can also be simply measured by weighing the petri dish before and after the treatment of the slugs with the chemical substance (with the slugs removed in each case). Additionally an indirect response to epithelial damage caused by a chemical substance may be determined by the reduction of the body weight of the slugs due to the leakage of haemolymphatic fluids through the damaged foot surface.
After the treatment the slugs are transferred individually to a fresh petri dish containing phosphate buffered saline. After a suitable exposure time, e.g. 1 hour the phosphate buffered saline is collected and analysed for the presence of proteins and/or enzymes, e.g. lactate dehydrogenase and/or alkaline phosphatase, or other marker substances released from the foot or epithelium of the slug, for example membrane associated components such as phospholipids or cholesterol. This procedure can be repeated after periods of several hours in order to determine the reversibility of the cell damage caused by the test chemical substance. The concentration or amount of the chemical substance to be tested can be changed and the influence of the concentration can be easily examined. The exposure time can also be changed if required. The slugs can be treated during several successive days in order to investigate the subchronical effect of substances on the foot mucosa.
Seven days before the start of the experiment the slugs were isolated in a plastic box lined with moist paper towel and placed at 95% relative humidity at 20° C. As test substances didecanyol-L-α-phosphatidylcholine (DDPC) and sodium deoxycholate (SDC) were selected. Benzalkonium chloride (1% w/v), SDC (1% w/v) and DDPC (1%, w/v) were prepared in phosphate buffered saline (PBS, pH 7.4). […] During the test the slugs are preferably kept in a generally calm and normal state and are not subjected to mechanical vibrations or mechanical or electrical disturbances which may affect mucus production.
The enzymes (lactate dehydrogenase (LDH) and alkaline phosphatase (ALP)) and total protein released into the PBS were determined. The slugs were weighed before and after the incubation period to determine the body weight changes. The mucus production was measured by weighing the petri dishes before and after the treatment with a test substance. The results are shown in Table 1 and shown graphically in FIGS. 1 to 5.

With hydroxypropyl-β-cyclodextrin [HPβCD] the “% MP, mucus production” value ([1]; in vivo) was 0%, the “mucus production (in words)” value ([1]; in vivo) was “no mucus production” and the “protein and enzyme release (in words)” value ([1]; in vivo) was “low protein and enzyme release”. The “ranking order of increasing toxicity” value ([1]; in vivo) was “PBS, 5% HPβCD<1% STDHF<1% SDC and 1% BAC”, the “mucus production (in words)” value ([2]; in vivo) was “no mucus production” and the “protein and enzyme release (in words)” value ([2]; in vivo) was “low protein and enzyme release”. The “ranking order of increasing toxicity” value ([2]; in vivo) was “PBS, 5% HPβCD<1% STDHF<1% SDC and 1% BAC”.

sodium deoxycholate [SDC] was tested, and the “ranking order of increasing toxicity” value ([1]; Arion) was “PBS, 5% HPβCD<1% STDHF<1% SDC and 1% BAC”, the “membrane damage (in words)” value ([1]; Arion, 1% w/v (SDC data in Table 1, Example 1)) was “severe membrane damage” and the “reduction in body weight to % of the initial weight” value ([1]; Arion, 1% w/v, five days (SDC data from Example 1)) was “about 50%”. For the same substance, the “membrane damage (in words)” value ([3]; 1% w/v, 15 min daily, five days) was “severe membrane damage”, the “% WL, reduction in weight (weight loss) caused by the 15 minute treatment as % of initial body weight of the day” value ([3]; day 1) was 12.73% and the “% MP, mucus production as % of the body weight at the start of the day before the treatment” value (from here on “% MP, mucus production as %”) ([3]; day 1) was 7.6%. The “ALP released into PBS” value ([3]; day 1, 1% w/v) was 13.49 U/L, the “LDH released into PBS” value ([3]; day 1, 1% w/v) was 14.07 U/L and the “Protein released into PBS” value ([3]; day 1, 1% w/v) was 19.92 μg/30 μL. For the same substance, the “% WL, reduction in weight (weight loss) caused by the 15 minute treatment as % of initial body weight of the day” value ([3]; day 2) was 12.60%, the “% MP, mucus production as %” value ([3]; day 2) was 10.7% and the “ALP released into PBS” value ([3]; day 2, 1% w/v) was 43.02 U/L. The “LDH released into PBS” value ([3]; day 2, 1% w/v) was 93.01 U/L, the “Protein released into PBS” value ([3]; day 2, 1% w/v) was 22.84 μg/30 μL and the “% WL, reduction in weight (weight loss) caused by the 15 minute treatment as % of initial body weight of the day” value ([3]; day 3) was 8.06%. For the same substance, the “% MP, mucus production as %” value ([3]; day 3) was 5.5%, the “ALP released into PBS” value ([3]; day 3, 1% w/v) was 103.56 U/L and the “LDH released into PBS” value ([3]; day 3, 1% w/v) was 135.93 U/L. For the same substance, the “Protein released into PBS” value ([3]; day 3, 1% w/v) was 38.95 μg/30 μL, the “% WL, reduction in weight (weight loss) caused by the 15 minute treatment as % of initial body weight of the day” value ([3]; day 4) was 11.28% and the “% MP, mucus production as %” value ([3]; day 4) was 7.6%. The “ALP released into PBS” value ([3]; day 4, 1% w/v) was 42.22 U/L, the “LDH released into PBS” value ([3]; day 4, 1% w/v) was 146.89 U/L and the “Protein released into PBS” value ([3]; day 4, 1% w/v) was 54.76 μg/30 μL. The “% WL, reduction in weight (weight loss) caused by the 15 minute treatment as % of initial body weight of the day” value ([3]; day 5) was 8.03%, the “% MP, mucus production as %” value ([3]; day 5) was 2.6% and the “ALP released into PBS” value ([3]; day 5, 1% w/v) was 22.98 U/L. For the same substance, the “LDH released into PBS” value ([3]; day 5, 1% w/v) was 136.19 U/L, the “Protein released into PBS” value ([3]; day 5, 1% w/v) was 55.59 μg/30 μL and the “ranking order of increasing toxicity” value ([2]; Limax) was “PBS, 5% HPβCD<1% STDHF<1% SDC and 1% BAC”. The “membrane damage (in words)” value ([2]; Limax, 1% w/v) was “severe membrane damage”, the “reduction in body weight to % of the initial weight” value ([2]; Limax, 1% w/v, five days) was “about 50%” and the “% MP, mucus production as %” value ([2]; day 1, Limax) was 11.16%. The “ALP released into PBS” value ([2]; day 1, Limax) was 11.62 U/L, the “LDH released into PBS” value ([2]; day 1, Limax) was 9.01 U/L and the “Protein released into PBS” value ([2]; day 1, Limax) was 10.1 μg/30μL. For the same substance, the “% MP, mucus production as %” value ([2]; day 2, Limax) was 10.27%, the “ALP released into PBS” value ([2]; day 2, Limax) was 3.34 U/L and the “LDH released into PBS” value ([2]; day 2, Limax) was 13.6 U/L. The “Protein released into PBS” value ([2]; day 2, Limax) was 15.78 μg/30μL, the “% MP, mucus production as %” value ([2]; day 3, Limax) was 13.01% and the “ALP released into PBS” value ([2]; day 3, Limax) was 2.62 U/L. The “LDH released into PBS” value ([2]; day 3, Limax) was 26.15 U/L, the “Protein released into PBS” value ([2]; day 3, Limax) was 18.04 μg/30μL and the “% MP, mucus production as %” value ([2]; day 4, Limax) was 19.38%. The “ALP released into PBS” value ([2]; day 4, Limax) was 6.24 U/L, the “LDH released into PBS” value ([2]; day 4, Limax) was 85.8 U/L and the “Protein released into PBS” value ([2]; day 4, Limax) was 35.04 μg/30μL. For the same substance, the “% MP, mucus production as %” value ([2]; day 5, Limax) was 8.11%, the “ALP released into PBS” value ([2]; day 5, Limax) was 28.79 U/L and the “LDH released into PBS” value ([2]; day 5, Limax) was 145.71 U/L. For the same substance, the “Protein released into PBS” value ([2]; day 5, Limax) was 88.14 μg/30μL.
